Experimental data reported in US8158804B2, “Chelating agents” (GE Healthcare AS, priority 2007, dated 2012).

Key:
[1] = Measurement of longitudinal relaxivity (T1 by inversion recovery method); format: physicochemical
Procedure: T1 was measured by the inversion recovery method as described by Timothy D. W. Claridge, in “High-Resolution NMR Techniques in Organic Chemistry” Pergamon Amsterdam 1999, 26-30.

[2] = Solubility of gadolinium chelates in water by HPLC analysis; format: physicochemical; settings: aqueous solution at 20° C.; for Water solubility of chelate: equilibration by shaking for a few hours
Procedure: The solubility of the gadolinium chelates in table 2 was measured by HPLC analysis of the concentrations of compound in aqueous solutions at 20° C. after equilibration by shaking for a few hours. […] This indicated the saturation point of the solution.

[3] = Stability of gadolinium chelates, spectrophotometric (UV absorbance vs pH) method; format: physicochemical; settings: chelant with 1 equivalent of gadolinium (III); calculated from UV absorbance as a function of pH
Procedure: Stabilities of the gadolinium complexes of the chelates were measured by a spectrophotometric method using the principle that there is a change in UV absorbance of these compounds as the hydroxyl group on the pyridinone ring deprotonates. There is a significant decrease in the wavelength of the UV maximum as the proton is removed. The UV absorbance of the chelants at different pH's was determined to measure the UV absorbance at different degrees of protonation. The measurements were then repeated in the presence of 1 equivalent of gadolinium (III) and the effect on the UV absorbtion as a function of pH measured. A software program was used to analyze the data and calculate the affinity of the chelates for gadolinium.

[4] = Reference 1; cited from earlier work

Compound	Water solubility of chelate [2]	Gd Chelate STABILITY CONSTANT (LogKGdL) [3]	other results
Bis aquo tris(3-hydroxy-1-(2-methoxyethyl)-4-oxo-4H-pyridin-2yl-)carboxyaminoeth-2-yl)amine gadolinium (III) salt [Example 1e]	<500 µg/mL		r1 at 10 MHz ([1]; 10 MHz): 9.7 mM⁻¹ s⁻¹; r1 at 20 MHz ([1]; 20 MHz): 11.6 mM⁻¹ s⁻¹; r1 at 60 MHz ([1]; 60 MHz): 9.5 mM⁻¹ s⁻¹
Bis aquo tris(-3-hydroxy-1-(2-hydroxyethyl)-4-oxo-4H-pyridin-2yl-)carboxyaminoeth-2-yl)-amine gadolinium (III) salt [Example 4]	<500 µg/mL	17.929	
Bis aquo tris((3-hydroxy-1-(2,3,4-trihydroxybutane)-4-oxo-4H-pyridin-2yl-)carboxyaminoeth-2-yl)amine gadolinium (III) salt [Example 7]			Water solubility of chelate (kinetic solubility) ([2]; kinetic solubility, some compound precipitates on standing): ~10 mg/ml* *Kinetic solubility, but some compound precipitates on standing
COCCn1ccc(=O)c(O)c1C(=O)NCCCC(CCCNC(=O)c1c(O)c(=O)ccn1CCOC)(CCCNC(=O)c1c(O)c(=O)ccn1CCOC)NC(=O)c1ccccc1 [Example 11, Tris((3-hydroxy-1-(2-methoxyethyl)-4-oxo-4H-pyridin-2-yl)-carboxyaminopropyl)-phenylcarboxyaminomethane]		15.716	
Bis aquo tris((3-hydroxy-1-(2-(2-hydroxyethoxy)ethyl)-4-oxo-4H-pyridin-2yl-)carboxyaminoeth-2-yl)amine gadolinium (III) salt [Example 5]	<1000 µg/mL		
O=C(NCCN(CCNC(=O)c1occc(=O)c1O)CCNC(=O)c1occc(=O)c1O)c1occc(=O)c1O [Standard, reference compound]		18.650	pGd [4]: 19.27
Bis aquo tris((3-hydroxy-1-(2,3,4,5,6-pentahydroxyhexane)-4-oxo-4H-pyridin-2yl-]carboxyaminoeth-2-yl)amine gadolinium (III) [Example 8]	>200000 µg/mL		
COCCn1ccc(=O)c(O)c1C(=O)NCC1CC(CNC(=O)c2c(O)c(=O)ccn2CCOC)CC(CNC(=O)c2c(O)c(=O)ccn2CCOC)C1 (stereo not drawn) [Example 3, Cis, cis 1,3,5,tris((3-hydroxy-1-(2-methoxyethyl)-4-oxo-4H-pyrid-2yl-)carboxyaminomethyl)-cyclohexane]		21.287	
Bis aquo tris((3-hydroxy-1-(2,3-dihydroxypropane)-4-oxo-4H-pyrid-2yl-)carboxyaminoeth-2-yl)-amine gadolinium (III) salt [Example 6]	3400 µg/mL		
O=C(NC(CCCNC(=O)c1c(O)c(=O)ccn1CCO)(CCCNC(=O)c1c(O)c(=O)ccn1CCO)CCCNC(=O)c1c(O)c(=O)ccn1CCO)c1ccccc1 [Example 12]		18.284	
